From US7514254B2, “Plant-derived alkaline alpha-galactosidase” (The State of Israel, Ministry of Agriculture & Rural …, priority 1998, dated 2009)
Entries after “also recorded” stand apart in the source; their conditions may differ.

Columns and labels:
[1] = tested on: melon (Cucumis melo) fruit acid form alpha-galactosidase; assay: Substrate kinetics (Lineweaver-Burk) of acid alpha-galactosidase; assay type: biochemical, muskmelon (Cucumis melo L. cv C-8)
Procedure: For routine analysis and monitoring the activity in the purification steps, alpha-galactosidase was assayed as described by Smart and Pharr (“Characterization of alpha-galactosidase from cucumber leaves”, Plant Physiology, 66:731-734, 1980), using p-nitrophenyl alpha-galactoside (pNPG) as substrate. […] The reaction was terminated after 10 min by adding 1 ml of 5% (w/v) Na2CO3 and activity expressed as nmol nitrophenol per min as measured at 410 nm. […] The assay was started by adding 50 μl enzyme preparation at 35 C and terminated after 10 to 20 min by 2 min boiling. […] For the partial purification of the acid form of alpha-galactosidase the fractions active at pH 5.5 were pooled and concentrated by reverse dialysis against solid sucrose. […] The active fractions were then desalted by dialysis against buffer A for 12 hours with two changes of the buffer. This enzyme fraction was used for the characterization of the acidic form of alpha-galactosidase. […] The substrate specificity of the alpha-galactosidases was tested with pNPG, stachyose, raffinose, melibiose or guar gum (Sigma).

[2] = target: T1, melon (Cucumis melo) fruit alkaline alpha-galactosidase Form I (Cucumis melo, UniProt Q84NI7); assay: Substrate kinetics (Lineweaver-Burk) of alkaline alpha-galactosidase Form I
T1 sequence (Q84NI7 1-754): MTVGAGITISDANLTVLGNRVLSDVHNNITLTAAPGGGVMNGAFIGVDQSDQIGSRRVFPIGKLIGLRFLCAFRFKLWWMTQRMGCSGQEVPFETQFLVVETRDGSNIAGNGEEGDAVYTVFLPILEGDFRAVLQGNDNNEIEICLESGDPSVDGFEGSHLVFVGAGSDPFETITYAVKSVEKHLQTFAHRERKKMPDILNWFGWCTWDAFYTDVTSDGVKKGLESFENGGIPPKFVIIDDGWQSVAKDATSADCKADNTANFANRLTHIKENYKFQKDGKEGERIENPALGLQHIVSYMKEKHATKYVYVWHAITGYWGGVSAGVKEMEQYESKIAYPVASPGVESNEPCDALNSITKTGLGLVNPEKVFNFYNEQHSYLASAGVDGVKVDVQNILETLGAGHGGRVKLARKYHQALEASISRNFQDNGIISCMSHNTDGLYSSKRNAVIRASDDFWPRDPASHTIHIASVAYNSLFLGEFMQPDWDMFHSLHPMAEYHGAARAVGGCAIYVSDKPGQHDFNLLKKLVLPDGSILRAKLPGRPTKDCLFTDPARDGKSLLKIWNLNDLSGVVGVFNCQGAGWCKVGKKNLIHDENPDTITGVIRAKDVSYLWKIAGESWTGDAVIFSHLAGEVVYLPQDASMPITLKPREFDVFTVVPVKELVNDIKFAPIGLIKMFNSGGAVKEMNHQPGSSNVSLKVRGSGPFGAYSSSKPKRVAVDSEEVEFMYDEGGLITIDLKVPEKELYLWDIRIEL
Procedure: (§1) For routine analysis and monitoring the activity in the purification steps, alpha-galactosidase was assayed as described by Smart and Pharr (“Characterization of alpha-galactosidase from cucumber leaves”, Plant Physiology, 66:731-734, 1980), using p-nitrophenyl alpha-galactoside (pNPG) as substrate. Reaction was initiated by adding 50 μl enzyme aliquot to either 200 μl 100 mM pH 5.5 McIlvaine buffer or 100 mM pH 7.5 HEPES buffer, containing 5 mM pNPG at 35 C. The reaction was terminated after 10 min by adding 1 ml of 5% (w/v) Na2CO3 and activity expressed as nmol nitrophenol per min as measured at 410 nm. […] The assay was started by adding 50 μl enzyme preparation at 35 C and terminated after 10 to 20 min by 2 min boiling.
The fractions from the DEAE-Sepharose chromatography which were active at pH 7.5 were pooled and dialyzed against buffer A for 12 h prior to loading onto an HPLC ion exchange chromatography column (Mono-Q HR 5/5, Pharmacia, Uppsala, Sweden), previously equilibrated with buffer A. Bound proteins were eluted with a linear gradient of 0.1 to 0.45 M NaCl and the active fractions were detected using pNPG as substrate at pH 7.5 as described above. […] For the further purification of Form II the active fractions of the peak II were chromatographed on hydrophobic interaction chromatography. The fractions were pooled, brought to 1 M (NH4)2SO4 and loaded on to a hydrophobic interaction column (phenyl-Sepharose CL-4B, 0.5×12 cm, Pharmacia, Uppsala, Sweden) previously equilibrated with buffer A containing 1 M (NH4)2SO4. The protein was eluted with a reverse stepwise gradient from 1 to 0 M (NH4)2SO4 with 50 mM intervals in buffer A. Fractions containing the activity peak were collected and dialyzed for 12 h against buffer A and the dialysate was concentrated by reverse dialysis against solid sucrose. The enzyme, partially purified by hydrophobic interaction chromatography, was used for the characterization of Form II. The active fractions from the hydrophobic interaction column were further purified. Active fractions were separated electrophoretically using a Mini Prep Cell (Bio-Rad Laboratories, Hercules, Calif.) for discontinuous native-PAGE with 7% polyacrylamide, according to manufacturer's instructions. Fractions (0.25 ml/fraction) were assayed at pH 7.5 with pNPG as substrate for the activity. The active fractions were pooled, concentrated by Vivaspin Concentrator (Vivascience LTD, Lincoln, England), and run in a 8% SDS-PAGE. Proteins in the SDS-PAGE were identified using Coomassie Blue staining.
Therefore, the active fractions from the Mono-Q column were used for the characterization of Form I. In addition, the Form I enzyme was further purified, as described in the following section.

[3] = tested on: melon (Cucumis melo) fruit acid form alpha-galactosidase; assay: Inhibition of acid alpha-galactosidase by alternative substrate (galactose release); assay type: biochemical, muskmelon (Cucumis melo L. cv C-8); details: 80 mM stachyose added to 10 mM raffinose
Procedure: For routine analysis and monitoring the activity in the purification steps, alpha-galactosidase was assayed as described by Smart and Pharr (“Characterization of alpha-galactosidase from cucumber leaves”, Plant Physiology, 66:731-734, 1980), using p-nitrophenyl alpha-galactoside (pNPG) as substrate. […] The reaction was terminated after 10 min by adding 1 ml of 5% (w/v) Na2CO3 and activity expressed as nmol nitrophenol per min as measured at 410 nm. […] The substrate specificity of the alpha-galactosidases was tested with pNPG, stachyose, raffinose, melibiose or guar gum (Sigma).

[4] = target: T1, melon (Cucumis melo) fruit alkaline alpha-galactosidase Form I; assay: Inhibition of alkaline alpha-galactosidase Form I by alternative substrate (galactose release); assay type: biochemical, muskmelon (Cucumis melo L. cv C-8); parameters: native 84 kDa, denatured 79 kDa; assayed at pH 7.5
Procedure: as §1

Vmax/Km ratio [1]: 0.02 | Km ([1]; Lineweaver-Burk): 10.5 mM | Vmax ([1]; Lineweaver-Burk): 0.23 μmol mg^−1 protein min^−1 | Vmax/Km ratio [2]: 0.06 | Vmax ([2]; Lineweaver-Burk): 0.24 μmol mg^−1 protein min^−1 | inhibition by excess stachyose (free galactose release) [3]: 45%
Structure (SMILES): OC[C@H]1O[C@H](OC[C@H]2O[C@H](OC[C@H]3O[C@H](O[C@]4(CO)O[C@H](CO)[C@@H](O)[C@@H]4O)[C@H](O)[C@@H](O)[C@@H]3O)[C@H](O)[C@@H](O)[C@H]2O)[C@H](O)[C@@H](O)[C@H]1O [Stachyose, O-alpha-D-galactopyranosyl-(1-6)-O-alpha-D-galactopyranosyl-(1-6)-O-alpha-D-glucopyranosyl-(1-2)-beta-D-fructofuranoside]
inhibition by excess stachyose (free galactose release, in words) [4]: negligible; also recorded: does not decrease
